From PMC7594054, “Design, Synthesis and In Vitro Experimental Validation of Novel TRPV4 Antagonists Inspired by Labdane Diterpenes” (Marine Drugs, 2020)

Key:
rTRPV4 = biological target: T1, rTRPV4 (Rattus norvegicus, UniProt Q9ERZ8); experiment: TRPV4 calcium influx assay (Fluo-4) in HEK-293 cells overexpressing rat recombinant TRPV4; type: cell-based; conditions: for IC50: against the effect of GSK1016790A (10 nM) after a 5-min pre-incubation, read-out: IC50 inh. TRPV4; for Efficacy %: as percent of the effect of ionomycin (4 µM), HEK-293 cells overexpressing rTRPV4, means ± SEM, n >= 3
T1 construct: expressed in transfected cells; host or cells: HEK-293
Source text: The interaction properties of all homodrimane-derived compounds 1–16, 18–19, and 22–25 with either TRPV type-4 or type-1 were studied in human embryonic kidney (HEK)-293 cells overexpressing either the rat recombinant type-4 (rTRPV4), which shares with the human orthologue ~95% of sequence identity, and the human recombinant type-1 (hTRPV1) channel, evaluating the changes in intracellular calcium levels. […] Cell fluorescence before and after the addition of various concentrations of test compounds was measured normalizing the effects against the response to ionomycin (4 μM). […] Dose-response curve fitting (sigmoidal dose-response variable slope) and parameter estimation were performed with Graph-Pad Prism8® (GraphPad Software Inc., San Diego, CA, USA). All determinations were performed at least in triplicate.

hTRPV1 = biological target: T2, hTRPV1 (Homo sapiens, UniProt Q8NER1); experiment: TRPV1 calcium influx assay (Fluo-4) in HEK-293 cells overexpressing human recombinant TRPV1; type: cell-based; conditions: for IC50: read-out: IC50 inh TRPV1
T2 construct: expressed in transfected cells; host or cells: HEK-293

HeLa cells = experiment: MTT cytotoxicity assay, HeLa cells; type: cell-based, human; conditions: HeLa cells, 1, 5 and 25 μM, 24 h
Method: (§1) HeLa and A549 cells were seeded at 2 × 10^3 cells/cm^2 density in 24-well plastic plates. One day after plating, compounds 6 and 18 were added to the culture medium for 24 h. Cell viability was evaluated with the 3-(4,5-dimethylthiazol-2-yl)-2,5-diphenyltetrazolium bromide (MTT; 0.5 mg/mL; Sigma-Aldrich, Milan, Italy) reduction assay, and formazan salt formation upon MTT reduction by the mitochondria of living cells was detected spectrophotometrically at 595 nm according to published procedures.
(§2) Figure 2 Cell viability measured in HeLa and A549 cells treated for 24 h with increasing concentration of compound 6 (panel A, C) and 18 (panel B, D). Bar graphs show cell viability measured using the 3-(4,5-dimethylthiazol-2-yl)-2,5-diphenyltetrazolium bromide (MTT) assay. Data are expressed as optical density (OD) at 595 nm, normalized to control (vehicle). The bar is the standard error of the mean (SEM) on 3 independent determinations. Statistically significant differences were accepted when the p-value was at least ≤0.05.

A549 cells = experiment: MTT cytotoxicity assay, A549 cells; type: cell-based, human; conditions: A549 cells, 1, 5 and 25 μM, 24 h
Method: as §1, §2

TRPV4 = conditions: cited from earlier work
TRPV1 = tested on: TRPV1; parameters: method as in PMID 30507122; conditions: cited from earlier work

T2 sequence (Q8NER1 whole entry): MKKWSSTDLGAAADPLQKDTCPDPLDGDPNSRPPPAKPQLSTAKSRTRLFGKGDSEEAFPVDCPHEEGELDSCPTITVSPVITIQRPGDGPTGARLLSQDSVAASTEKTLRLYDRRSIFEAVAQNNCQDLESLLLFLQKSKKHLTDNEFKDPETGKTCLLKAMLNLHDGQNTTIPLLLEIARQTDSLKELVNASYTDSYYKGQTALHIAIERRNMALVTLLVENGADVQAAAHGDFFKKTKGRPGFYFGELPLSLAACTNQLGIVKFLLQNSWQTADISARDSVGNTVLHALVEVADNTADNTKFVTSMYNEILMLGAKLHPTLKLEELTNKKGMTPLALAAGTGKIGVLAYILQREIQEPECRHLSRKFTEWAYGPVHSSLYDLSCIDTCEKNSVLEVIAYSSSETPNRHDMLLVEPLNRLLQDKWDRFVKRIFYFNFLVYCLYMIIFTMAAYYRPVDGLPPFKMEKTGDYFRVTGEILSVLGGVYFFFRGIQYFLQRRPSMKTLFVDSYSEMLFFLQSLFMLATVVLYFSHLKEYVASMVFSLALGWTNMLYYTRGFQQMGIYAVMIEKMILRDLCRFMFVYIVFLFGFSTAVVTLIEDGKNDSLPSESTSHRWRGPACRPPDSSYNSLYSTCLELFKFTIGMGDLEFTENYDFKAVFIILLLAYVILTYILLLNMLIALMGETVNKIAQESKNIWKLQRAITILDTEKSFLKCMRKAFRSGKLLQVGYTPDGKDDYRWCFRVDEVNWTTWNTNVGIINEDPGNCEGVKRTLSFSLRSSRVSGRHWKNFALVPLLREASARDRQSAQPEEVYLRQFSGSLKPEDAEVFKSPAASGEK
T1 sequence (Q9ERZ8 whole entry): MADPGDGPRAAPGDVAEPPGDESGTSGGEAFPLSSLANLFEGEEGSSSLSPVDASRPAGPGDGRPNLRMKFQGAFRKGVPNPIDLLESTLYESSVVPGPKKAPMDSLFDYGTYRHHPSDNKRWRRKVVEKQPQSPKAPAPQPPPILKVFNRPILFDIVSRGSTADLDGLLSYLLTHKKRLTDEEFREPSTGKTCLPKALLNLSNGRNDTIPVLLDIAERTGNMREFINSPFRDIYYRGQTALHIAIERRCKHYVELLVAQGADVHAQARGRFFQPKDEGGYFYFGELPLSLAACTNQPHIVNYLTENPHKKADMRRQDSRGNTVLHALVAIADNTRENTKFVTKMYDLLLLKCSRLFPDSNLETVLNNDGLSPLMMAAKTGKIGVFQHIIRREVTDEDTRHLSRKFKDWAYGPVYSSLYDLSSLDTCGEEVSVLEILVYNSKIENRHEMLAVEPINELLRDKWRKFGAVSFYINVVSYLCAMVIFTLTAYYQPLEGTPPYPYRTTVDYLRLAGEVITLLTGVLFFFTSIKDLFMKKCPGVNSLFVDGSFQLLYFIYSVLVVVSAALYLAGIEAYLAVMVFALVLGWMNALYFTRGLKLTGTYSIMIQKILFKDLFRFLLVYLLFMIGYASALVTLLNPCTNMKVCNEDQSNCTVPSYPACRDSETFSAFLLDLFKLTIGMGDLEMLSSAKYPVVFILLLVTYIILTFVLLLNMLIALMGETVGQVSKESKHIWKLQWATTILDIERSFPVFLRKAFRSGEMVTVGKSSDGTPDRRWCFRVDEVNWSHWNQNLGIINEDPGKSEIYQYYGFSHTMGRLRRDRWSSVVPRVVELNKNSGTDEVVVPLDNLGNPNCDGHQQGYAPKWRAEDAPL

Row | SMILES | activity on rTRPV4 in words (rTRPV4) | IC50 (rTRPV4) | Efficacy % (rTRPV4) | IC50 (hTRPV1) | cytotoxic effect (cell viability, MTT) (HeLa cells) | cytotoxic effect (cell viability, MTT) (A549 cells) | further results
1 | CC1(C)CCC[C@]2(C)[C@@H](CC(=O)NCc3ccc(Cl)c(Cl)c3)[C@](C)(O)CC[C@@H]12 [Compound 6, N-(3,4-dichlorobenzyl)-2-((1R,2R,4aS,8aS)-2-hydroxy-2,5,5,8a-tetramethyldecahydronaphthalen-1-yl)acetamide] | potent and selective TRPV4 antagonists | 5.3 ± 0.3 µM | <10% | > 100 µM | neither compound caused statistically-significant cytotoxic effects at any tested concentration | neither compound caused statistically-significant cytotoxic effects at any tested concentration | Efficacy % (hTRPV1; as percent of the effect of ionomycin (4 µM), HEK-293 cells overexpressing hTRPV1, means ± SEM, N >= 3): 16.9 ± 0.3%
2 | C=C1CC[C@@H]2[C@](C)(CO)[C@H](O)CC[C@@]2(C)[C@@H]1/C=C/C1=CC(C(C[C@@H]2C(=C)CC[C@@H]3[C@](C)(CO)[C@H](O)CC[C@]32C)C2=CCOC2=O)OC1=O (stereo partly shown) [bisandrographolide A] | – | – | – | – | – | – | EC50 (TRPV4; read-out: EC50 (TRPV4 agonist)): 0.79 to 0.95 µM
3 | C/C=C(\C)[C@H]1C(C)=C[C@H]2C[C@@H](C)C[C@@H](C(=O)O)[C@@H]2[C@@]1(C)C(=O)c1cccnc1 [onydecalin A] | – | – | – | – | – | – | IC50 (TRPV4; read-out: IC50 (TRPV4 antagonist)): 45.9 µM; activity towards TRPV1 in words (TRPV1): partial activity

Further lines, with some results ahead:

Row | activity on rTRPV4 in words (rTRPV4) | IC50 (rTRPV4) | Efficacy % (rTRPV4) | IC50 (hTRPV1) | SMILES | cytotoxic effect (cell viability, MTT) (HeLa cells) | cytotoxic effect (cell viability, MTT) (A549 cells) | further results
4 | potent and selective TRPV4 antagonists | 5.41 ± 0.07 µM | <10% | – | CC1(C)CCC[C@]2(C)[C@@H](CC(=O)OCc3ccccc3)[C@](C)(O)CC[C@@H]12 [Compound 18, Benzyl 2-((1R,2R,4aS,8aS)-2-hydroxy-2,5,5,8a-tetramethyldecahydronaphthalen-1-yl)acetate] | neither compound caused statistically-significant cytotoxic effects at any tested concentration | neither compound caused statistically-significant cytotoxic effects at any tested concentration | –
5 | – | > 100 µM | <10% | > 100 µM | CC1(C)CCC[C@]2(C)[C@@H](CCOC(=O)/C=C/c3ccc4c(c3)OCO4)[C@](C)(O)CC[C@@H]12 [Compound 23, 2-((1R,2R,4aS,8aS)-2-hydroxy-2,5,5,8a-tetramethyldecahydronaphthalen-1-yl)ethyl (E)-3-(benzo[d][1,3]dioxol-5-yl)acrylate] | – | – | melting point: 115 to 116 °C
